The values that follow come from patent publication US10202339B2, “Therapeutic compounds and compositions” (AGIOS PHARMACEUTICALS, INC., priority 2012, dated 2019).

Structures are written as SMILES.

One may read the IC50 as the concentration needed to halve the response being measured.

Chain of IDH1 R132H (O75874 whole entry R132H): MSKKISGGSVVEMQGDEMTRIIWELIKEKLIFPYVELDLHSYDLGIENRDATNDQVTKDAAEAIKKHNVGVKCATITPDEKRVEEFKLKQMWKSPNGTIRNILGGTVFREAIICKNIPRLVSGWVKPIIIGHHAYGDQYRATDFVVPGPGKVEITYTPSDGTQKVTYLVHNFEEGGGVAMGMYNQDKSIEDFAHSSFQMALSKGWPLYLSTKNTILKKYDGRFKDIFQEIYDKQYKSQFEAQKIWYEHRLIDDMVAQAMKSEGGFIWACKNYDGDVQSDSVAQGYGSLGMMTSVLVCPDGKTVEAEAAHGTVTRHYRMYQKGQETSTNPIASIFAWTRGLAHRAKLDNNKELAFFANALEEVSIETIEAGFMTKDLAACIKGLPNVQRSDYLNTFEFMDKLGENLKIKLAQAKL

This test has as its target IDH1 R132H (Homo sapiens (Human), UniProt O75874, R132H). As to the kind of experiment: In vitro assay for IDH1m (R132H) inhibitors, NADPH depletion with resazurin/resorufin detection. Format: biochemical. Particulars: IDH1 R132H enzyme, 50 minutes at room temperature; read-out: IDH R132H IC50. On the procedure:
Assays were conducted in a volume of 76 μl assay buffer (150 mM NaCl, 10 mM MgCl2, 20 mM Tris pH 7.5, 0.03% bovine serum albumin) as follows in a standard 384-well plate: To 25 ul of substrate mix (8 uM NADPH, 2 mM aKG), 1 μl of test compound was added in DMSO. The plate was centrifuged briefly, and then 25 μl of enzyme mix was added (0.2 μg/ml IDH1 R132H) followed by a brief centrifugation and shake at 100 RPM. The reaction was incubated for 50 minutes at room temperature, then 25 μl of detection mix (30 μM resazurin, […]) was added and the mixture further incubated for 5 minutes at room temperature. The conversion of resazurin to resorufin was detected by fluorescent spectroscopy at Ex544 Em590 c/o 590.
Representative compounds of formula (I) set forth in Tables 1 and 2 were tested in this assay and the results are set forth below in Table 4.
Regarding `Cc1ccc(NC(=O)Nc2cccc(C(F)(F)F)c2)cc1S(=O)(=O)Nc1cccc(Cl)c1` [Compound 294], the IC50 lay within 1 to 10 µM. Take `Cc1ccc(NC(=O)Nc2cccc(C(F)(F)F)c2)cc1S(=O)(=O)Nc1ccccc1F` [Compound 295]: the concentration for half-maximal inhibition (IC50) lay in the range of 1 to 10 µM. Then `Cc1ccc(NC(=O)Nc2cccc(C(F)(F)F)c2)cc1S(=O)(=O)Nc1cccc(F)c1` [Compound 296], with 1 to 10 µM. Then `Cc1ccc(NC(=O)Nc2cccc(C(F)(F)F)c2)cc1S(=O)(=O)Nc1ccc(F)cc1` [Compound 297], with 1 to 10 µM; and `Cc1cc(F)ccc1NS(=O)(=O)c1cc(NC(=O)Nc2cccc(C(F)(F)F)c2)ccc1C` [Compound 298], with 1 to 10 µM.

Take `Cc1ccc(NC(=O)Nc2cccc(C(F)(F)F)c2)cc1S(=O)(=O)Nc1ccc(F)c(Cl)c1` [Compound 299]: the IC50 fell in the range of 1 to 10 µM. In the case of `Cc1ccc(NC(=O)Nc2cccc(C(F)(F)F)c2)cc1S(=O)(=O)Nc1cc(F)c(F)cc1F` [Compound 301], the IC50 lay in the range of 1 to 10 µM. As to `Cc1cccc(NS(=O)(=O)c2cc(NC(=O)Nc3cccc(C(F)(F)F)c3)ccc2C)c1` [Compound 302], the IC50 lay within 1 to 10 µM. As for `Cc1ccc(NC(=O)Nc2cccc(C(F)(F)F)c2)cc1S(=O)(=O)Nc1ccc(O)cc1` [Compound 304, N-(4-hydroxyphenyl)-2-methyl-5-(3-(3-(trifluoromethyl)phenyl)ureido)benzenesulfonamide], the concentration for half-maximal inhibition (IC50) was at most 1 µM. In the case of `CCCOc1ccc(NS(=O)(=O)c2cc(NC(=O)Nc3cccc(C(F)(F)F)c3)ccc2C)cc1` [Compound 305] it was 1 to 10 µM; in that of `Cc1ccc(NC(=O)Nc2cccc(C(F)(F)F)c2)cc1S(=O)(=O)Nc1ccc(OS(C)(=O)=O)cc1` [Compound 306], 1 to 10 µM; in that of `CCOC(=O)COc1ccc(NS(=O)(=O)c2cc(NC(=O)Nc3cccc(C(F)(F)F)c3)ccc2C)cc1` [Compound 308], 1 to 10 µM. Then `CC(=O)Nc1ccc(NS(=O)(=O)c2cc(NC(=O)Nc3cccc(C(F)(F)F)c3)ccc2C)cc1` [Compound 309], with 1 to 10 µM; and `CCOC(=O)CNc1ccc(NS(=O)(=O)c2cc(NC(=O)Nc3cccc(C(F)(F)F)c3)ccc2C)cc1` [Compound 310], with 1 to 10 µM. In the case of `Cc1ccc(NC(=O)Nc2cccc(C(F)(F)F)c2)cc1S(=O)(=O)Nc1ccc(C#N)cc1` [Compound 311] it was 1 to 10 µM. With `Cc1ccc(NC(=O)Nc2cccc(C(F)(F)F)c2)cc1S(=O)(=O)Nc1ccc(C(=O)O)cc1` [Compound 312], the concentration for half-maximal inhibition (IC50) is 1 to 10 µM. Then `Cc1ccc(NC(=O)Nc2cccc(C(F)(F)F)c2)cc1S(=O)(=O)Nc1ccc(S(C)(=O)=O)cc1` [Compound 313], with 1 to 10 µM.

Consider `Cc1ccc(NC(=O)Nc2cccc(C(F)(F)F)c2)cc1S(=O)(=O)Nc1cccc(CCc2ccccc2)c1` [Compound 314], for which the IC50 was 1 to 10 µM. In the case of `Cc1ccc(NC(=O)Nc2cccc(C(F)(F)F)c2)cc1S(=O)(=O)Nc1ccc2c(c1)OCCO2` [Compound 315, N-(2,3-dihydrobenzo[b][1,4]dioxin-6-yl)-2-methyl-5-(3-(3(trifluoromethyl)phenyl)ureido)benzenesulfonamide] it was 1 to 10 µM; in that of `Cc1ccc(NC(=O)Nc2cccc(C(F)(F)F)c2)cc1S(=O)(=O)Nc1ccc2cc[nH]c2c1` [Compound 316, N-(1H-indol-6-yl)-2-methyl-5-(3-(3-(trifluoromethyl)phenyl)ureido)benzenesulfonamide], 1 to 10 µM. Then `CC(=O)n1ccc2cc(NS(=O)(=O)c3cc(NC(=O)Nc4cccc(C(F)(F)F)c4)ccc3C)ccc21` [Compound 318], with 1 to 10 µM. On to `Cc1ccc(NC(=O)Nc2cccc(C(F)(F)F)c2)cc1S(=O)(=O)Nc1ccc2c(c1)ncn2C` [Compound 320, 2-methyl-N-(1-methyl-1H-benzo[d]imidazol-5-yl)-5-(3-(3-(trifluoromethyl)phenyl)ureido)benzene sulfonamide], for which the half-inhibitory concentration (IC50) lay in the range of 1 to 10 µM.

Regarding `Cc1ccc(NC(=O)Nc2cccc(C(F)(F)F)c2)cc1S(=O)(=O)Nc1cccc2ncccc12` [Compound 321], the IC50 fell in the range of 1 to 10 µM.
